This passage reports Time and logP results from ChEMBL document CHEMBL3217712, “Improved biodistribution, pharmacokinetics and photodynamic efficacy using a new photostable sulfonamide bacteriochlorin” (Medchemcomm, 2012).

The subject of data set [1] is S91. The experiment in a line: Photodynamic efficacy against mouse Cloudman S91 cells allografted in DBA mouse assessed as time of tumor growth delay at 2 mg/kg, iv followed by irradiated with 70 mW cm'-2 diode laser light for 25 mins. In kind it is functional.
A short description of data set [2]: n-Octanol-water partition coefficient, log P of the compound. The class given is physicochemical.

Turning to `O=S(=O)(O)c1ccc(Cl)c(-c2c3nc(c(-c4cc(S(=O)(=O)O)ccc4Cl)c4ccc([nH]4)c(-c4cc(S(=O)(=O)O)ccc4Cl)c4nc(c(-c5cc(S(=O)(=O)O)ccc5Cl)c5ccc2[nH]5)CC4)C=C3)c1`, the Time in data set [1] stood at 29 days.
For `O=S(=O)(O)c1ccc(Cl)c(-c2c3nc(c(-c4cc(S(=O)(=O)O)ccc4Cl)c4ccc([nH]4)c(-c4cc(S(=O)(=O)O)ccc4Cl)c4nc(c(-c5cc(S(=O)(=O)O)ccc5Cl)c5ccc2[nH]5)CC4)CC3)c1`, the logP in data set [2] is -1.7. The Time in data set [1] was determined as 27 days.
